The record followed here is patent publication US10221178B2, “Purine inhibitors of human phosphatidylinositol 3-kinase delta” (MERCK SHARP & DOHME CORP., priority 2015, dated 2019).

Bounds are passed on as bounds.

In assay [1] the target is PI3Kdelta (Homo sapiens (Human), UniProt O00329). The experiment in a line: HTRF PI3K biochemical assay, delta isoform. The settings on record: 0.3 nM enzyme, 100 uM ATP, 5 uM PIP2, form screened: Neutral. An excerpt:
(§1) HTRF PI3K Biochemical Assay to Measure Intrinsic Potency of Compound Inhibitors
(§2) The PI3-Kinase biochemical assays were developed to measure the intrinsic potency and compound dependent inhibition of the alpha, beta, delta, and gamma PI3K isoform enzymes.
(§3) This assay was developed and further optimized from a kit produced by Upstate (Millipore catalog #33-047) and has been configured for HTS (high throughput screening) and SAR screening. Briefly, this procedure exploits the exquisite specificity and high affinity binding of enzyme reaction substrate phosphatidyl(3,4,5)triphosphate (PIP3) to the GRP1 pleckstrin homology (PH) domain to generate the signal. In the absence of PIP3, an HTRF (Homogeneous Time-Resolved Fluorescence energy transfer) complex is formed consisting of europium (Eu)-labeled anti-GST, GSTtagged GRP1-PH domain, biotin-PIP3 and streptavidin conjugated APC. The native PIP3 produced by PI3-Kinase activity disrupts in a competitive manner the biotin-PIP3 from the PH domain, resulting in the loss of energy transfer (HTRF complex) and a decrease in the signal. The format of this assay is the same for all 4 isoforms of PI3K; the differences lie in the concentration of enzyme used to achieve robust assay window. The alpha, beta, and delta assays are run at 0.5, 1, and 0.3 nM enzymes and the gamma assay is run at 5 nM enzyme. The ATP concentration is 100 uM in the alpha, beta, and delta assays and 50 uM ATP in the gamma assay. All reactions are run at 5 uM PIP2.
(§4) Compounds are serially diluted (3-fold in 100% DMSO) across a 384-well polypropylene source plated from column 3 to column 12 and column 13 to column 22, to yield 10 concentration dose response for each test compound. Columns 1, 2, 23 and 24 contain either only DMSO or pharmacological known control inhibitor. Once titrations are made, 2.5 nL of the compounds on 384 well plates are reformatted and transferred by acoustic dispense in quadruplicates to a 1536 assay plate (Greiner) to assay across all four PI3K isoform enzymes.
(§5) The PI3-Kinase biochemical assay was optimized using the HTRF kit provided by Upstate (Millipore). The assay kit contains six reagents: 1) 4× Reaction Buffer; 2) native PIP2 (substrate); 3) Stop (EDTA); 4) Detection Mix A (Streptavidin-APC); 5) Detection Mix B (Eu-labeled Anti-GST plus GST-tagged PH-domain); 6) Detection Mix C. In addition, the following items were obtained or purchased; PI3Kinase (alpha 14-602, beta 14-603, gamma 14-558 and delta 14-604 from Upstate; Millipore), dithiothreitol (Sigma, D-5545), Adenosine-5′ triphosphate (InVitrogen, Cat#AS001A), native PIP3 (PI(3,4,5)P3, diC8, H^+, CELLSIGNALS, INC. Cat #907) DMSO (Sigma, 472301).
(§6) PI3Kinase Reaction Buffer is prepared by dilution the stock 1:4 with de-ionized water. DTT, PIP2 and Biotin-PIP3 were added to 1536 assay plate at a final concentration of 5 mM, […] on the day of use. Enzyme addition and compound pre-incubation are initiated by the addition of 1.25 ul of PI3K (at twice its final concentration) in the 1× reaction buffer to all wells using a BioRaptor. Plates are incubated at RT for 15 minutes. Reactions are initiated by addition of 1.25 ul of 2× substrate solution (PIP2 and ATP in 1× reaction buffer) using BioRaptor. Plates are incubated in humidified chamber at RT for one hour. Reactions are quenched by addition of 0.625 uL of stop solution to all wells using the BioRaptor. The quenched reactions are then processed to detect product formation by adding 0.625 uL of Detection Solution to all wells using the BioRaptor (Detection mix C, Detection Mix A, and Detection Mix B combined together in an 18:1:1 ratio prepared 2 hours prior to use). Following a one hour incubation in the dark, the HTRF signal is measured on the Envision plate reader set for 330 nm excitation and dual emission detection at 620 nM (Eu) and 665 nM (APC).

The target in assay [2] is PI3Kalpha (Homo sapiens (Human), UniProt P42336). The experiment in a line: HTRF PI3K biochemical assay, alpha isoform (selectivity versus PI3Kalpha). The settings on record: relative ratio (PI3K-alpha IC50 value/PI3K-delta IC50 value); form screened: Neutral.
Description: as §1, §2, §3, §4, §5
as §6, with “[…]. […]” for “(APC).”
On the technique in general: TR-FRET usually uses a lanthanide donor and a delayed reading to cut background.

Chain of PI3Kdelta (O00329 whole entry, canonical isoform): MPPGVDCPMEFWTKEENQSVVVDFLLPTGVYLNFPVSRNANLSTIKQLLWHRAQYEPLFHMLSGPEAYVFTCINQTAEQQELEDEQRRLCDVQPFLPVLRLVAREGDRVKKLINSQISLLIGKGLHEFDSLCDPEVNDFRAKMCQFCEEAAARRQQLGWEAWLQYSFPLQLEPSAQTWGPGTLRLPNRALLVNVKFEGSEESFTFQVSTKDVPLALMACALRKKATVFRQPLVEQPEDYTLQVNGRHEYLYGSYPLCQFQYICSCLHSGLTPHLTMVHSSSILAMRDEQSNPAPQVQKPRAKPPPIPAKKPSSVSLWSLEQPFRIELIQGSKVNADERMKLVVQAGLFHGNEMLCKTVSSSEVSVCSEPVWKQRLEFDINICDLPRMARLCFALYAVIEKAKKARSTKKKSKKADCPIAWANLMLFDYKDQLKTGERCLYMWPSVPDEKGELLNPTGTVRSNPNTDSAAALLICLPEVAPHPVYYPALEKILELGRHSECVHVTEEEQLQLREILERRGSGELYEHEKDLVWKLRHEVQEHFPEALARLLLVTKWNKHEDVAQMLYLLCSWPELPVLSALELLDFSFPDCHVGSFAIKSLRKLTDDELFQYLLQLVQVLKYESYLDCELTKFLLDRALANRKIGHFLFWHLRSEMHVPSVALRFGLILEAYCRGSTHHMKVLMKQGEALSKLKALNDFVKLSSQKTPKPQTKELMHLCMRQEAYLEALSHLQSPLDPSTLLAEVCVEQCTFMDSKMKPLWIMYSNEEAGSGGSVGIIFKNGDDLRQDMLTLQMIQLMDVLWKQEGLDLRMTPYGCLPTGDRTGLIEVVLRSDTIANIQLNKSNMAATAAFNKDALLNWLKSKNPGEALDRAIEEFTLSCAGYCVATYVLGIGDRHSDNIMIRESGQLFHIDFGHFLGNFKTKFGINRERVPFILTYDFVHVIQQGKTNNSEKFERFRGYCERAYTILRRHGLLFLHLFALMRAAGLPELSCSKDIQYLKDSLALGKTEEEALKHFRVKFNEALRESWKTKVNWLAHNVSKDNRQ
Chain of PI3Kdelta (P27986 whole entry partner, canonical isoform): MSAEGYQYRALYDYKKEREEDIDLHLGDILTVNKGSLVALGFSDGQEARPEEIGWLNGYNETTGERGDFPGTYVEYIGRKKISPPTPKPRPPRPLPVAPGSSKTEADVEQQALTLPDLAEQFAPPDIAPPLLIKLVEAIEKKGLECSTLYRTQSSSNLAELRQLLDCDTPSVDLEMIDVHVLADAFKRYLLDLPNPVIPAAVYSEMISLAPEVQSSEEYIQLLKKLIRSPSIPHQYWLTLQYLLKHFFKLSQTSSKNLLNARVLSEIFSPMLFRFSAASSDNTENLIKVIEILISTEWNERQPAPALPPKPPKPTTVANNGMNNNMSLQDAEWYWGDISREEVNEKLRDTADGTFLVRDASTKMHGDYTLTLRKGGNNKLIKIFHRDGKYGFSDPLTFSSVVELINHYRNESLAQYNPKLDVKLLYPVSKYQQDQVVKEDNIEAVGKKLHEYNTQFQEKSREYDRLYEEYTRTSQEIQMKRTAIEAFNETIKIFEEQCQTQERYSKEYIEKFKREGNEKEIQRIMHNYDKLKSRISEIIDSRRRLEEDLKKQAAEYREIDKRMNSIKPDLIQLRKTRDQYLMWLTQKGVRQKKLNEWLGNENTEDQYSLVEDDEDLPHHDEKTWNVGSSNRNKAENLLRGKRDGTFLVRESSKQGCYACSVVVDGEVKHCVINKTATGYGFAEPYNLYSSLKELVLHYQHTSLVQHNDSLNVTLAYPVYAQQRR
Chain of PI3Kalpha (P42336 whole entry, canonical isoform): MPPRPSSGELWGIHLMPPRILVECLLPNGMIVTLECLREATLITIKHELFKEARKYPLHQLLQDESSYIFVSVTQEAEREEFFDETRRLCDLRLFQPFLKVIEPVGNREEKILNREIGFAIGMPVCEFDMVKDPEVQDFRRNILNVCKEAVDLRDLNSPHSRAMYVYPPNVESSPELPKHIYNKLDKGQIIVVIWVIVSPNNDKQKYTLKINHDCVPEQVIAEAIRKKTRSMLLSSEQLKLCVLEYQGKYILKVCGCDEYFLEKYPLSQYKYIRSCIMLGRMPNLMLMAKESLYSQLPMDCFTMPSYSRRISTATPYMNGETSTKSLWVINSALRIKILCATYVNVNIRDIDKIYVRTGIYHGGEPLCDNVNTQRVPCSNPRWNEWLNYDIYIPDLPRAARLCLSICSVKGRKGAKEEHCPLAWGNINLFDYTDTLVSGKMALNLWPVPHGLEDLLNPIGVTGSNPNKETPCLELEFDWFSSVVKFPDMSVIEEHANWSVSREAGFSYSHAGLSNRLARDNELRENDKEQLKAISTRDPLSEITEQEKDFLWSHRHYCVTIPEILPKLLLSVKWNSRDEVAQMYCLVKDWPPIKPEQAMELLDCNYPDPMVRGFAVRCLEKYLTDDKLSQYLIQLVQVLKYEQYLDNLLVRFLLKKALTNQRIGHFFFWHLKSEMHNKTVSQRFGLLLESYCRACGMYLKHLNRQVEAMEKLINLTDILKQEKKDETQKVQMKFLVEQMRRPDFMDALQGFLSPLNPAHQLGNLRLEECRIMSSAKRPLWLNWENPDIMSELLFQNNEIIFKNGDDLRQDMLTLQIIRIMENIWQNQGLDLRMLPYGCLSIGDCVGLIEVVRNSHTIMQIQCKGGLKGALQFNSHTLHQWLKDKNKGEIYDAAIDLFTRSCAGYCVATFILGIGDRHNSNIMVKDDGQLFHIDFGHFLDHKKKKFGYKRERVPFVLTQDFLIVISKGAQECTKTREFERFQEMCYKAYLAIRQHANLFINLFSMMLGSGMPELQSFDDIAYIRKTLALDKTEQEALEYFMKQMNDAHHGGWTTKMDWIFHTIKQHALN
Chain of PI3Kalpha (P27986 whole entry partner, canonical isoform): as the sequence (P27986 whole entry partner, canonical isoform) above

As for `CCC(Nc1ncnc2c1nc(-c1cnc(C)nc1)n2CC)C(=O)N1CCc2c(c(C(C)C)nn2C)C1` (single isomer, unassigned) [Compound 5-2, (S or R)-9-ethyl-N-(1-{[1-methyl-3-(1-methylethyl)-1,4,6,7-tetrahydro-5H-pyrazolo[4,3-c]pyridin-5-yl]carbonyl}propyl)-8-(2-methylpyrimidin-5-yl)-9H-purin-6-amine], it took 39 nM to reach half-maximal inhibition in assay [1] (IC50). In addition, the “Selectivity versus PI3Kalpha” value in assay [2] is recorded as over 10.

`CCn1c(-c2cnc(C)nc2)nc2c(NC(C(=O)N3C[C@@H](C)O[C@@H](C)C3)C3CC3)ccnc21` (single isomer, unassigned) [Compound 3-4, N-{(R or S)-1-cyclopropyl-2-[(cis)-2,6-dimethylmorpholin-4-yl]-2-oxoethyl}-3-ethyl-2-(2-methylpyrimidin-5-yl)-3H-imidazo[4,5-b]pyridin-7-amine] yielded an IC50 in assay [1] of 5.2 nM. For the same molecule, the “Selectivity versus PI3Kalpha” value in assay [2] is on record as over 10.

For the molecule `CC[C@H](Nc1ncnc2c1nc(-c1cnc(C)nc1)n2CC)C(=O)N1C[C@@H](C)O[C@@H](C)C1` [Compound 2-6, N-[(1S)-1-{[(cis)-2,6-dimethylmorpholin-4-yl]carbonyl}propyl]-9-ethyl-8-(2-methylpyrimidin-5-yl)-9H-purin-6-amine], the IC50 in assay [1] is 6.1 nM. The “Selectivity versus PI3Kalpha” value in assay [2] was over 10.

`CC[C@H](Nc1ncnc2c1nc(-c1cnc(C)nc1)n2CC)C(=O)N1CC2CCS(=O)(=O)C2C1` (mixture of isomers) [Compound 2-14, N-{(1S)-1-[((3a(R and S), 6a(R and S)-1,1-dioxidohexahydro-5H-thieno[2,3-c]pyrrol-5-yl)carbonyl]propyl}-9-ethyl-8-(2-methylpyrimidin-5-yl)-9H-purin-6-amine] displayed a 50% inhibitory concentration (IC50) in assay [1] of 7 nM. Moreover, the “Selectivity versus PI3Kalpha” value in assay [2] is listed as over 10.

On to `CC[C@H](Nc1ncnc2c1nc(-c1ccc(C(F)(F)F)nc1)n2CC)C(=O)N1C[C@@H](C)O[C@@H](C)C1` [Compound 2-7, N-[(1S)-1-{[(cis)-2,6-dimethylmorpholin-4-yl]carbonyl}propyl]-9-ethyl-8-[6-(trifluoromethyl)pyridin-3-yl]-9H-purin-6-amine], for which, in assay [1], the concentration for half-maximal inhibition (IC50) was 2.8 nM. Besides, in assay [2], the “Selectivity versus PI3Kalpha” value is over 10.

Molecule `CCn1c(-c2cnc(C)nc2)nc2c(N[C@@H](CC(N)=O)C(=O)N3C[C@@H](C)O[C@@H](C)C3)ncnc21` [Compound 2-41, (3S)-4-[(cis)-2,6-dimethylmorpholin-4-yl]-3-{[9-ethyl-8-(2-methylpyrimidin-5-yl)-9H-purin-6-yl]amino}-4-oxobutanamide] yielded a concentration for half-maximal inhibition (IC50) in assay [1] of 110 nM. The “Selectivity versus PI3Kalpha” value in assay [2] is on record as over 10.

Regarding `CC[C@H](Nc1ncnc2c1nc(-c1cnc(C)nc1)n2CC)C(=O)N1CC(=O)NC(C)(C)C1` [Compound 4-7, 4-[(2S)-2-{[9-ethyl-8-(2-methylpyrimidin-5-yl)-9H-purin-6-yl]amino}butanoyl]-6,6-dimethylpiperazin-2-one], the IC50 in assay [1] was 19 nM. Also, the “Selectivity versus PI3Kalpha” value in assay [2] is recorded as over 10.

Turning to `CC[C@H](Nc1ncnc2c1nc(-c1cnc(C)nc1)n2CC)C(=O)N1CCOCC1C(C)C` (stereo partly drawn) [Compound 2-32, 9-ethyl-N-[(1S)-1-{[3-(1-methylethyl)morpholin-4-yl]carbonyl}propyl]-8-(2-methylpyrimidin-5-yl)-9H-purin-6-amine], inhibition in assay [1] was half-maximal at 83 nM (IC50). In assay [2], the “Selectivity versus PI3Kalpha” value is recorded as over 10.

Turning to `CCC(Oc1ncnc2c1nc(-c1cnn(CC)c1C)n2C)C(=O)N1CCCCC1` (racemic) [Compound 1-2, (R and S)-8-(1-ethyl-5-methyl-1H-pyrazol-4-yl)-9-methyl-6-[1-(piperidin-1-ylcarbonyl)propoxy]-9H-purine], half-maximal inhibition in assay [1] (IC50) required 240 nM. In assay [2], the “Selectivity versus PI3Kalpha” value is over 10.

As to `CC[C@H](Nc1ncnc2c1nc(-c1cnc(C)nc1)n2CC)C(=O)N1CC2(CCCC2)C1` [Compound 2-21, N-[(1S)-1-(2-azaspiro[3.4]oct-2-ylcarbonyl)propyl]-9-ethyl-8-(2-methylpyrimidin-5-yl)-9H-purin-6-amine], half-maximal inhibition in assay [1] (IC50) required 14 nM. For the same molecule, in assay [2], the “Selectivity versus PI3Kalpha” value was over 10.

Consider `CC[C@H](Nc1ncnc2c1nc(-c1cnc(C)nc1)n2CC)C(=O)N1CC(=O)N(C)C(C)C1` (single isomer, unassigned) [Compound 4-6, (S or R)-4-[(2S)-2-{[9-ethyl-8-(2-methylpyrimidin-5-yl)-9H-purin-6-yl]amino}butanoyl]-1,6-dimethylpiperazin-2-one], for which it took 26 nM to reach half-maximal inhibition in assay [1] (IC50). Moreover, the “Selectivity versus PI3Kalpha” value in assay [2] was over 10.

Turning to `CC[C@H](Nc1ncnc2c1nc(-c1cnc(C)nc1)n2CC)C(=O)N1C[C@@H](C)N(C)[C@@H](C)C1` [Compound 4-3, 9-ethyl-8-(2-methylpyrimidin-5-yl)-N-[(1S)-1-{[cis-3,4,5-trimethylpiperazin-1-yl]carbonyl}propyl]-9H-purin-6-amine], inhibition in assay [1] was half-maximal at 5.5 nM (IC50). The “Selectivity versus PI3Kalpha” value in assay [2] was over 10.

In assay [1], `CC[C@H](Nc1ncnc2c1nc(-c1cnc(C)nc1)n2CC)C(=O)N1CCCOCC1` [Compound 2-25, 9-ethyl-8-(2-methylpyrimidin-5-yl)-N-[(1S)-1-(1,4-oxazepan-4-ylcarbonyl)propyl]-9H-purin-6-amine] returned an IC50 of 21 nM. Further, in assay [2], the “Selectivity versus PI3Kalpha” value is recorded as over 10.

`CC[C@H](Nc1ncnc2c1nc(-c1cnc(C)nc1)n2CC)C(=O)N1CC(=O)N(C)C(C)C1` (single isomer, unassigned) [Compound 4-5, (S or R)-4-[(2S)-2-{[9-ethyl-8-(2-methylpyrimidin-5-yl)-9H-purin-6-yl]amino}butanoyl]-1,6-dimethylpiperazin-2-one] displayed an IC50 in assay [1] of 6.1 nM. Moreover, the “Selectivity versus PI3Kalpha” value in assay [2] was over 10.

Take `CCn1c(-c2cnc(C)nc2)nc2c(N[C@H](C(=O)N3C[C@@H](C)O[C@@H](C)C3)C(C)C)ncnc21` [Compound 2-49, N-[(1S)-1-{[(cis)-2,6-dimethylmorpholin-4-yl]carbonyl}-2-methylpropyl]-9-ethyl-8-(2-methylpyrimidin-5-yl)-9H-purin-6-amine]: the midpoint of inhibition in assay [1], the IC50, lay at 4.1 nM. The “Selectivity versus PI3Kalpha” value in assay [2] was over 10.

In assay [1], `CC[C@H](Nc1ncnc2c1nc(-c1cnc(C)nc1)n2CC)C(=O)N1C[C@@H](C)C(F)(F)[C@@H](C)C1` [Compound 4-4, N-[(1S)-1-{[cis-4,4-difluoro-3,5-dimethylpiperidin-1-yl]carbonyl}propyl]-9-ethyl-8-(2-methylpyrimidin-5-yl)-9H-purin-6-amine] registered an IC50 of 4.8 nM. In addition, the “Selectivity versus PI3Kalpha” value in assay [2] is listed as over 10.

A word on the IC50: it is the concentration at which inhibition is half-maximal. Read a low IC50 as greater potency.
